pEC50: −log10 of the molar value. Where two headings read alike, the source gives them in different places.
Assays:
[1] = system: parental HEK cells; assay: HEK parental Agonist Counterscreen Assay (non-transfected cells); format: cell-based; settings: for Averaged Max % Response (±St. Dev.): activity relative to known control
Excerpt: The high control for the agonist counterscreen was Forskolin not acetylcholine.

[2] = target: T1, GPR139 (Homo sapiens, UniProt Q6DWJ6); assay: GPR139 Agonist titration / agonist counterscreen assay (calcium detection, HEK-GPR139 cells); format: cell-based; parameters: expressed in transfected cells; host or cells: HEK Aequorin cells, Maxcyte transient transfection; settings: GPR139 Agonist Activity; for Averaged Max % Response (±St. Dev.): activity relative to known control; for pEC50: read-out: EC50
T1 sequence (Q6DWJ6 1-353): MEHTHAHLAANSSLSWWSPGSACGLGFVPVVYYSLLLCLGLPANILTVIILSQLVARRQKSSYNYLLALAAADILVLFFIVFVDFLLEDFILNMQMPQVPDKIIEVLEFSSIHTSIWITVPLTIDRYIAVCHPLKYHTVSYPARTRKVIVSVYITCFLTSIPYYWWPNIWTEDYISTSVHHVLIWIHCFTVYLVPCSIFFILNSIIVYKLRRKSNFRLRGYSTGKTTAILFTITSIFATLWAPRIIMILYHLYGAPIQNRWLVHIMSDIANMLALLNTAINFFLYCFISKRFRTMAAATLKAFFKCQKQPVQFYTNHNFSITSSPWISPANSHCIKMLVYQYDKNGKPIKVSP
Procedure: GPR activity was assessed using a calcium detection assay. […] Negative control samples were treated with DMSO. […] Intracellular calcium was measured using Calcium 5.

[3] = Homo sapiens, HEK293, HEK Agonist Activity, parental non-transfected HEK cells
[4] = values printed in E-notation without unit
[5] = Homo sapiens, HEK293, HEK Agonist Activity section of Table 4 (parental HEK counterscreen)
[6] = HEK Agonist Activity section of Table 4 (parental HEK counterscreen)

Row | Compound | Lipophilic Efficiency (logD) ([1]; HEK Agonist Activity) | Lipophilic Efficiency (logP) ([1]; HEK Agonist Activity) | Averaged Max % Response (±St. Dev.) ([1]; HEK Agonist Activity) [%] | pEC50 [1, 3] | Averaged Max % Response (±St. Dev.) [2] [%] | Lipophilic Efficiency (logD) ([2]; based on logD) | Lipophilic Efficiency (logP) ([2]; based on logP) | Hill Slope ([2]; fitted dose-response curve) | Efficiency Ligand ([2]; ligand efficiency) | pEC50 [2, 4] | Lipophilic Efficiency (logD) ([1]; HEK Agonist Activity section) | Lipophilic Efficiency (logP) ([1]; HEK Agonist Activity section) | Averaged Max % Response (±St. Dev.) ([1]; HEK Agonist Activity section) [%] | pEC50 [1, 5] | Efficiency Ligand [2] | Hill Slope [2] | Lipophilic Efficiency (logD) [2] | Lipophilic Efficiency (logP) [2] | pEC50 ([2]; HEK-GPR139 cells) | pEC50 [1, 6]
1 | Cc1onc(-c2ccccc2Cl)c1C(=O)NNC(=O)CSc1ccccc1[N+](=O)[O-] [SR-01000633083] | 1.49 | 1.48 | 21.09 ± 6.01 | < 4.85 | 100.43 ± 4.95 | 4.82 | 4.81 | 0.91 | 0.38 | 8.17 | – | – | – | – | – | – | – | – | – | –
2 | O=C(O)CC1CCCC1c1ccccc1 (stereo not shown) [SR-01000320687] | – | – | – | – | 65.23 ± 8.63 | – | – | – | – | – | 4.35 | 1.80 | 17.26 ± 6.30 | < 4.85 | 0.56 | 0.93 | 5.53 | 2.98 | 6.03 | –
3 | O=C(Cc1cccc2ccccc12)Nc1nnc(-c2cccs2)o1 [SR-01000012264] | – | – | – | – | 85.12 ± 11.10 | 3.36 | 3.36 | 0.80 | 0.40 | 6.86 | 1.35 | 1.34 | 3.88 ± 6.42 | – | – | – | – | – | – | < 4.84
4 | CCC(=O)NNC(=O)C(C)Oc1ccc(Cl)cc1Cl (stereo not shown) [SR-01000316982] | – | – | – | – | 86.53 ± 11.45 | – | – | – | – | – | 2.52 | 2.48 | 2.44 ± 4.96 | < 4.85 | 0.46 | 1.19 | 3.90 | 3.86 | 6.24 | –
5 | CCCc1nn(CC(=O)NCc2nc3ccccc3n2C)c(=O)c2cc3ccsc3n12 [SR-01000336681] | – | – | – | – | 81.02 ± 6.69 | – | – | – | – | – | 2.37 | 2.37 | 4.99 ± 7.59 | – | 0.26 | 1.92 | 3.33 | 3.33 | 5.80 | < 4.85
6 | CS(=O)(=O)c1cccc(C(=O)NCCCN2CCc3ccccc32)c1 [SR-01000387617] | – | – | – | – | 81.90 ± 12.88 | – | – | – | – | – | 2.95 | 2.95 | 2.04 ± 4.49 | < 4.85 | 0.35 | 0.75 | 4.28 | 4.28 | 6.18 | –
7 | CC(CCC(=O)C12CC3CC(CC(C3)C1)C2)CCc1ccc2ccccc2c1 (stereo not shown) [SR-01000359546] | – | – | – | – | 116.44 ± 14.37 | – | – | – | – | – | 1.36 | 1.36 | 3.46 ± 3.80 | < 4.85 | 0.30 | 0.53 | 2.60 | 2.60 | – | –
8 | N#Cc1ccc(OC(=O)COc2cccc3ccccc23)cc1 [SR-01000005203] | – | – | – | – | 77.18 ± 14.00 | – | – | – | – | – | 0.91 | 0.91 | 16.23 ± 3.90 | < 4.86 | 0.38 | 1.01 | 2.24 | 2.24 | 6.19 | –
9 | COc1ccc(-c2nnn(CC(=O)NCCc3c[nH]c4ccccc34)n2)cc1OC [SR-01000339494] | 1.97 | 1.97 | 13.92 ± 7.54 | < 4.85 | 107.79 ± 9.70 | 5.30 | 5.30 | 0.87 | 0.38 | – | – | – | – | – | – | – | – | – | – | –
10 | Cc1ccc(SCC(=O)NNC(=O)c2cccs2)cc1 [SR-01000286062] | – | – | – | – | 99.20 ± 4.08 | 4.23 | 4.23 | 0.78 | 0.48 | 6.88 | 2.20 | 2.20 | 8.31 ± 5.73 | – | – | – | – | – | – | < 4.85
11 | O=C(Cn1ccc2ccccc21)NC1CCN(Cc2ccccc2)CC1 [SR-01000925700] | – | – | – | – | 83.76 ± 7.63 | – | – | – | – | – | 2.90 | 1.91 | 10.33 ± 2.07 | < 4.85 | 0.32 | 0.44 | 4.08 | 3.09 | 6.03 | –
12 | O=C(CNC(=O)c1ccc(Br)o1)NC1CCCc2ccccc21 (stereo not shown) [SR-01000064101] | – | – | – | – | 90.33 ± 2.09 | – | – | – | – | – | 2.64 | 2.64 | 10.45 ± 2.67 | < 4.83 | 0.38 | 1.15 | 4.09 | 4.09 | 6.28 | –
13 | CCCCC(O)CCNC(=O)C1CC(=O)N(CCc2ccc(C)cc2)C1 (stereo not shown) [SR-01000145701] | – | – | – | – | 114.02 ± 14.51 | – | – | – | – | – | 4.13 | 2.54 | 10.54 ± 1.83 | < 4.85 | 0.34 | 0.99 | 5.67 | 4.07 | 6.38 | –
14 | O=C(CN1N=C(c2ccc(Cl)cc2)CCC1=O)NCCN1CCc2ccccc2C1 [SR-01000145135] | – | – | – | – | 81.84 ± 7.77 | – | – | – | – | – | 2.82 | 2.34 | −17.80 ± 4.24 | – | 0.30 | 0.84 | 4.49 | 4.01 | 6.52 | < 4.85
15 | O=C(CCc1nc2ccccc2s1)NNC(=O)CSc1ccccc1F [SR-01000069574] | – | – | – | – | 93.05 ± 4.55 | – | – | – | – | – | 2.04 | 2.04 | 7.10 ± 4.83 | < 4.84 | 0.35 | 0.94 | 3.68 | 3.67 | 6.47 | –
